The source of these data is patent US8859611B2, “Thiophene inhibitors of S-nitrosoglutathione reductase” (N30 Pharmaceuticals, Inc., priority 2009, dated 2014).

T1 sequence (P11766 whole entry): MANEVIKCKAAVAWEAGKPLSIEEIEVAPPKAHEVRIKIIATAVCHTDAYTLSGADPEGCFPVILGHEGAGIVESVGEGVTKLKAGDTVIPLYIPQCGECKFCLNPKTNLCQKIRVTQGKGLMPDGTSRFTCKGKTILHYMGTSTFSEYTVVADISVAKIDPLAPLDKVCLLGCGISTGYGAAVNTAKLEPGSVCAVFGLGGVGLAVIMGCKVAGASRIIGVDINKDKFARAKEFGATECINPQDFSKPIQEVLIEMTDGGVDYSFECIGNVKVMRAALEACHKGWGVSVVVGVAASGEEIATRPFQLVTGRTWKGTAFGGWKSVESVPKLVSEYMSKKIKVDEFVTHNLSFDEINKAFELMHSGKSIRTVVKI

This assay has as its target T1, GSNOR (Homo sapiens, UniProt P11766).
T1 construct: made in house; host or cells: E. coli (arabinose-induced)
In words: GSNOR assay (in vitro inhibition of GSNOR activity, NADH absorbance at 340 nm). It counts as biochemical. To be noted: 100 mM NaPO4 pH 7.4, 0.240 mM GSNO, 0.300 mM NADH, 0.5 μg/mL GSNO Reductase, 1% DMSO, 25° C.; read-out: IC50 (GSNOR inhibitor activity). The procedure: Various compounds were tested in vitro for their ability to inhibit GSNOR activity.
GSNOR expression and purification is described in Biochemistry 2000, 39, 10720-10729.
Pre-cultures were grown from stabs of a GSNOR glycerol stock in 2XYT media containing 100 ug/ml ampicillin after an overnight incubation at 37° C. Cells were then added to fresh 2XYT (4 L) containing ampicillin and grown to an OD (A600) of 0.6-0.9 at 37° C. before induction. GSNOR expression was induced with 0.1% arabinose in an overnight incubation at 20° C.
E. coli cell paste was lysed by nitrogen cavitation and the clarified lysate purified by Ni affinity chromatography on an AKTA FPLC (Amersham Pharmacia). The column was eluted in 20 mM Tris pH 8.0/250 mM NaCl with a 0-500 mM imidazole gradient. Eluted GSNOR fractions containing the Smt-GSNOR fusion were digested overnight with Ulp-1 at 4° C. to remove the affinity tag then re-run on the Ni column under the same conditions. GSNOR was recovered in the flowthrough fraction and for crystallography is further purified by Q-Sepharose and Heparin flowthrough chromatography in 20 mM Tris pH 8.0, 1 mM DTT, 10 uM ZnSO4.
GSNO and enzyme/NADH Solutions are made up fresh each day. The solutions are filtered and allowed to warm to room temperature. GSNO solution: 100 mM NaPO4 (pH 7.4), 0.480 mM GSNO. 396 μL of GSNO Solution is added to a cuvette followed by 8 μL of test compound in DMSO (or DMSO only for full reaction control) and mixed with the pipette tip. Compounds to be tested are made up at a stock concentration of 10 mM in 100% DMSO. 2 fold serial dilutions are done in 100% DMSO. 8 μL of each dilution are added to an assay so that the final concentration of DMSO in the assay is 1%. The concentrations of compounds tested range from 100 to 0.003 μM. Enzyme/NADH solution: 100 mM NaPO4 (pH 7.4), 0.600 mM NADH, 1.0 μg/mL GSNO Reductase. 396 μL of the Enzyme/NADH solution is added to the cuvette to start the reaction. The cuvette is placed in the Cary 3E UV/Visible Spectrophotometer and the change in 340 nm absorbance/min at 25° C. is recorded for 3 minutes. The assays are done in triplicate for each compound concentration. IC50's for each compound are calculated using the standard curve analysis in the Enzyme Kinetics Module of SigmaPlot.
Final assay conditions: 100 mM NaPO4, pH 7.4, 0.240 mM GSNO, 0.300 mM NADH, 0.5 μg/mL GSNO Reductase, and 1% DMSO. Final volume: 800 μL/cuvette.
Regarding `COc1ccc(-c2csc(CCC(=O)O)c2-c2ccc(C(N)=O)cc2C)cc1` [Example 1, 3-(3-(4-carbamoyl-2-methylphenyl)-4-(4-methoxyphenyl)thiophen-2-yl)propanoic acid], the IC50 was under 1000 nM.

For the compound `COc1cc(Cl)ccc1-c1csc(CCC(=O)O)c1-c1ccc(C(N)=O)cc1` [Example 2, 3-(3-(4-carbamoylphenyl)-4-(4-chloro-2-methoxyphenyl)thiophen-2-yl)propanoic acid], the IC50 was under 1000 nM.

As for `COc1cc(Cl)ccc1-c1csc(CCC(=O)O)c1-c1ccc(O)cc1` [Example 4, 3-(4-(4-chloro-2-methoxyphenyl)-3-(4-hydroxyphenyl)thiophen-2-yl)propanoic acid], the IC50 was under 1000 nM. Under `Cc1cc(C(N)=O)ccc1-c1c(-c2ccc(-n3ccnc3C)cc2)csc1CCC(=O)O` [Example 7, 3-(3-(4-carbamoyl-2-methylphenyl)-4-(4-(2-methyl-1H-imidazol-1-yl)phenyl)thiophen-2-yl)propanoic acid] stands under 1000 nM; under `Cc1nccn1-c1ccc(-c2csc(CCC(=O)O)c2-c2ccc(C(N)=O)cc2)cc1` [Example 8, 3-(3-(4-carbamoylphenyl)-4-(4-(2-methyl-1H-imidazol-1-yl)phenyl)thiophen-2-yl)propanoic acid], under 1000 nM; under `Cc1cc(NS(C)(=O)=O)ccc1-c1c(-c2ccc(-n3ccnc3C)cc2)csc1CCC(=O)O` [Example 9, 3-(4-(4-(2-methyl-1H-imidazol-1-yl)phenyl)-3-(2-methyl-4-(methylsulfonamido)phenyl)thiophen-2-yl)propanoic acid], under 1000 nM.

Take `Cc1cc(C(N)=O)ccc1-c1c(-c2ccc(-n3ccnc3C)s2)csc1CCC(=O)O` [Example 11, 3-(4′-(4-carbamoyl-2-methylphenyl)-5-(2-methyl-1H-imidazol-1-yl)-2,3′-bithiophen-5′-yl)propanoic acid]: the IC50 is under 1000 nM. As to `Cc1cc(NS(C)(=O)=O)ccc1-c1c(-c2ccc(-n3ccnc3C)s2)csc1CCC(=O)O` [Example 12, 3-(5-(2-methyl-1H-imidazol-1-yl)-4′-(2-methyl-4-(methylsulfonamido)phenyl)-2,3′-bithiophen-5′-yl)propanoic acid], the IC50 is under 1000 nM. For the compound `Cc1cc(C(N)=O)ccc1-c1c(-c2ccc(Br)cc2)csc1CCC(=O)O` [Example 13, 3-(4-(4-bromophenyl)-3-(4-carbamoyl-2-methylphenyl)thiophen-2-yl)propanoic acid], the IC50 is under 1000 nM. On to `COc1ccc(-c2scc(CCC(=O)O)c2-c2ccc(C(N)=O)cc2C)cc1` [Example 14, 3-(4-(4-carbamoyl-2-methylphenyl)-5-(4-methoxyphenyl)thiophen-3-yl)propanoic acid], for which the IC50 is under 1000 nM.

By IC50 is commonly meant the concentration that inhibits the measured activity by half.
